Experimental data from US10842756B2 (BIOVIIIX S.R.L., priority 2015, dated 2020).

Tests used:
[1] = Release kinetics of the drug by micro-dialysis (QuixSep) into PBS pH 7.4; assay type: physicochemical; conditions: 5FU solution in PBS at 200 μg/ml; up to 60 minutes; ambient temperature
Protocol: In particular, as a receiving step a PBS (phosphate buffered saline) at pH=7.4 was analysed. The method used is micro-dialysis by means of a system known as QuixSep® with a Spectra/pore membrane, MWCO=3500 Da.
The system was maintained under constant magnetic stirring, at ambient temperature, taking samples of the receiving step at predetermined times and re-integrating the collected volume.
The samples were analysed and the values obtained were plotted considering the single collections and re-integrations from the preceding step, so as to obtain a dissolution/release profile.
The data relating to the release percentage were calculated on the basis of a drug loading determined by LC-MS/MS analysis.

[2] = bolus of 600 mg of 5FU, cited from earlier work

O=c1[nH]cc(F)c(=O)[nH]1 [Batch 5FU, 5-fluorouracil]
dissolution of the free drug [1]: 70%
plasmatic concentration of 5FU ([2]; after 25 minutes): 10 µg/mL
Cmax ([2]; body surface of 1.7): about 50 μg/ml
